target: T1, USP7 (Homo sapiens, UniProt Q93009); test: USP7 Assay A (Ubitquin-Rhodamine 110 Assay); assay type: biochemical; settings: USP7 activity in USP7 assay A and B (table does not say which assay per compound); read-out: USP7_IC50
T1 construct: USP7, construct USP7 (208-1102) 6*His, Viva Biotech; 6xHis (C); purchased Viva Biotech
Method: Each assay was performed in a final volume of 15 μL in assay buffer containing 20 mM Tris-HCl (pH 8.0, (1M Tris-HCl, pH 8.0 solution; Corning 46-031-CM)), 1 mM GSH (L-Glutathione reduced; Sigma #G4251), 0.03% BGG ([…], Sigma, #G7516-25G), and 0.01% Triton X-100 (Sigma, #T9284-10L). […] 5 μL of 2× enzyme was added to assay plates (pre-stamped with compound) preincubated with USP7 for 30 minutes and then 5 μL of 2×Ub-Rh110 was added to assay plates. […] Fluorescence was read on the Envision (Excitation at 485 nm and Emission at 535 nm; Perkin Elmer) or on the PheraSTAR (Excitation at 485 nm and Emission at 535 nm; BMG Labtech).
Data from USP7 Assays A and B were reported as percent inhibition (inh) compared with control wells based on the following equation: % inh=1−((FLU−AveLow)/(AveHigh−AveLow)) where FLU=measured Fluorescence (See Tables 6-10). AveLow=average Fluorescence of no enzyme control (n=16). AveHigh=average Fluorescence of DMSO control (n=16). […] Data is fitted using the Levenburg Marquardt algorithm.

T1 sequence (Q93009 208-1102): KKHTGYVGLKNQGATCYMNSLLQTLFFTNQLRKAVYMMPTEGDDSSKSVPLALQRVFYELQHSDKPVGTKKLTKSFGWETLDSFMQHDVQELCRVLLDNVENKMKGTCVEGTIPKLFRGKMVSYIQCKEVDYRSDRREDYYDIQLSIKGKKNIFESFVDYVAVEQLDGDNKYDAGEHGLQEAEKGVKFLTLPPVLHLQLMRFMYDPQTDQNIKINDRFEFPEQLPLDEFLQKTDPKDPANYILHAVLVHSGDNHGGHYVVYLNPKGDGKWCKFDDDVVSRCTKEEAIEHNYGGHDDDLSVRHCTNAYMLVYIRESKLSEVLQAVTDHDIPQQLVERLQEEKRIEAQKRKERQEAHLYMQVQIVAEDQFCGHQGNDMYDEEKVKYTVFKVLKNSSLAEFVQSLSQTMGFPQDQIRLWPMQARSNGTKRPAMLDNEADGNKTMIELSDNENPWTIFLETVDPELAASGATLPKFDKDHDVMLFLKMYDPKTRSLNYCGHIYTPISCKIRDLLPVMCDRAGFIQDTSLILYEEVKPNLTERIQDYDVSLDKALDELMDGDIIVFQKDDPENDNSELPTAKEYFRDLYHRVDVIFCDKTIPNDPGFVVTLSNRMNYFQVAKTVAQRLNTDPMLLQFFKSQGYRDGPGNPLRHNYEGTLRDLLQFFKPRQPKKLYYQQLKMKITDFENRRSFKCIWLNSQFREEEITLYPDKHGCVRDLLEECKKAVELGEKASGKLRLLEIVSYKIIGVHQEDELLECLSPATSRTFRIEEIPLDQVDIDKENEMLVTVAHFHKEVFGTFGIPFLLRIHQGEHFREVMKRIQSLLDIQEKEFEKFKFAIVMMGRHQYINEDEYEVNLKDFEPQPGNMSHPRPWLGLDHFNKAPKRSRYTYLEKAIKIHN

| SMILES | IC50 |
| --- | --- |
| Cc1cnn([C@@H](CC(=O)N2CCC(O)(Cn3cnc4c(cnn4-c4ccc(F)cc4)c3=O)CC2)C(F)F)c1 (single isomer, unassigned) [Compound I-736] | > 10000 nM |
| CN1CCN(c2ccc(-n3ncc4c(=O)n(CC5(O)CCN(C(=O)C[C@@H](C(F)F)n6cccn6)CC5)cnc43)cc2)CC1 (single isomer, unassigned) [Compound I-827] | 1000 to 10000 nM |
| Cn1ccc2c(=O)n(CC3(O)CCN(C(=O)CC(C(F)F)n4ccc(F)n4)CC3)cnc21 (single isomer, unassigned) [Compound I-1695] | < 200 nM |
| Cn1ccc2c(=O)n(CC3(O)CCN(C(=O)CC(C(F)F)n4ccc(F)n4)CC3)cnc21 (single isomer, unassigned) [Compound I-1696] | > 10000 nM |
| Cn1ncc2c(=O)n(CC3(O)CCN(C(=O)CC(C(F)F)n4ccc(F)n4)CC3)cnc21 (single isomer, unassigned) [Compound I-1697] | < 200 nM |
| Cn1ncc2c(=O)n(CC3(O)CCN(C(=O)CC(C(F)F)n4ccc(F)n4)CC3)cnc21 (single isomer, unassigned) [Compound I-1698] | > 10000 nM |
| O=C(C1CCC(Nc2cccnc2F)CC1)N1CCC(O)(Cn2cnc3c(cnn3-c3ccccc3)c2=O)CC1 (single isomer, unassigned) [Compounds I-1039] | 200 to 1000 nM |
| COC1CCC(Oc2ccc(-n3ncc4c(=O)n(CC5(O)CCN(C(=O)C6(C)CC6)CC5)cnc43)cc2)CC1 (single isomer, unassigned) [Compounds I-1116] | 200 to 1000 nM |

same assay, conditions: USP7 assay A and B (table does not say which assay per compound); Ubiquitin-Rhodamine 110 substrate; read-out: USP7_IC50

| SMILES | IC50 |
| --- | --- |
| CC(CC(=O)N1CCC(O)(Cn2cnc3c(cnn3C)c2=O)CC1)c1ccccc1 (centres unmarked) [Compound I-1, 5-((4-Hydroxy-1-(3-phenylbutanoyl)piperidin-4-yl)methyl)-1-methyl-1,5-dihydro-4H-pyrazolo[3,4-d]pyrimidin-4-one] | 200 to 1000 nM |
| Cn1ncc2c(=O)n(CC3(O)CCN(C(=O)c4ccc(-c5ccc(C(=O)N6CCCCC6)cc5)cc4Cl)CC3)cnc21 [Compound I-55] | 1000 to 10000 nM |
| C[C@H](CC(=O)N1CCC(O)(Cn2cnc3c(cnn3C)c2=O)CC1)c1ccccc1 [Compound I-57] | 200 to 1000 nM |
| C[C@H](CC(=O)N1CCC(O)(Cn2cnc3c(cnn3C(C)(C)C)c2=O)CC1)c1ccccc1 [Compound I-59] | 200 to 1000 nM |
| CC(C)(C)n1ncc2c(=O)n(CC3(O)CCN(C(=O)c4ccc(Oc5ccccc5)cc4)CC3)cnc21 [Compound I-60] | > 10000 nM |
| CC(C)n1ncc2c(=O)n(CC3(O)CCN(C(=O)C[C@@H](C)c4ccccc4)CC3)cnc21 [Compound I-61] | 200 to 1000 nM |

same assay, conditions: USP7 assay A and B (table does not say which assay per compound); read-out: USP7_IC50

| SMILES | IC50 |
| --- | --- |
| C[C@@H](CC(=O)N1CCC(O)(Cn2cnc3c(cnn3-c3ccc(F)cc3)c2=O)CC1)n1cc2c(n1)CCC2 (single isomer, unassigned) [Compound I-519] | > 10000 nM |
| C[C@](O)(c1ccc(C(=O)N2CCC(O)(Cn3cnc4c(cnn4-c4ccc(F)cc4)c3=O)CC2)cc1)C(F)(F)F (single isomer, unassigned) [Compound I-528] | 1000 to 10000 nM |
| COc1ccc(C(=O)N2CCC(O)(C(C)n3cnc4c(cnn4-c4ccc(F)cc4)c3=O)CC2)cc1 (single isomer, unassigned) [Compound I-615] | 200 to 1000 nM |
| COC1(C)CCN(c2cc(-n3ncc4c(=O)n(CC5(O)CCN(C(=O)C6CC6)CC5)cnc43)ccc2F)C1 (single isomer, unassigned) [Compound I-971] | 200 to 1000 nM |
| C[S+]([O-])c1ccc(-n2ncc3c(=O)n(CC4(O)CCN(C(=O)c5ccc(F)cc5)CC4)cnc32)cc1 (single isomer, unassigned) [Compound I-995, 5-((1-(4-fluorobenzoyl)-4-hydroxypiperidin-4-yl)methyl)-1-(4-(methylsulfinyl)phenyl)-1H-pyrazolo[3,4-d]pyrimidin-4(5H)-one] | 1000 to 10000 nM |
| C[S+]([O-])c1ccc(-n2ncc3c(=O)n(CC4(O)CCN(C(=O)c5ccc(F)cc5)CC4)cnc32)cc1 (single isomer, unassigned) [Compound I-996, 5-((1-(4-fluorobenzoyl)-4-hydroxypiperidin-4-yl)methyl)-1-(4-(methylsulfinyl)phenyl)-1H-pyrazolo[3,4-d]pyrimidin-4(5H)-one] | 1000 to 10000 nM |
| CS(=N)(=O)c1ccc(-n2ncc3c(=O)n(CC4(O)CCN(C(=O)c5ccc(F)cc5)CC4)cnc32)cc1 (single isomer, unassigned) [Compound I-997, 5-((1-(4-fluorobenzoyl)-4-hydroxypiperidin-4-yl)methyl)-1-(4-(S-methylsulfonimidoyl)phenyl)-1,5-dihydro-4H-pyrazolo[3,4-d]pyrimidin-4-one] | 1000 to 10000 nM |
| CS(=N)(=O)c1ccc(-n2ncc3c(=O)n(CC4(O)CCN(C(=O)c5ccc(F)cc5)CC4)cnc32)cc1 (single isomer, unassigned) [Compound I-998, 5-((1-(4-fluorobenzoyl)-4-hydroxypiperidin-4-yl)methyl)-1-(4-(S-methylsulfonimidoyl)phenyl)-1,5-dihydro-4H-pyrazolo[3,4-d]pyrimidin-4-one] | 1000 to 10000 nM |
| CN(C(=O)N1CCC(O)(Cn2cnc3c(cnn3C)c2=O)CC1)c1ccc(-c2ccccc2)cc1 [Compound I-4, N-([1,1′-biphenyl]-4-yl)-4-hydroxy-N-methyl-4-((1-methyl-4-oxo-1,4-dihydro-5H-pyrazolo[3,4-d]pyrimidin-5-yl)methyl)piperidine-1-carboxamide] | > 10000 nM |
| O=C(O)Cc1cccc(-n2ncc3c(=O)n(CC4(O)CCN(C(=O)c5ccccc5)CC4)cnc32)c1 [Compound I-11, 2-(3-(5-((1-Benzoyl-4-hydroxypiperidin-4-yl)methyl)-4-oxo-4,5-dihydro-1H-pyrazolo[3,4-d]pyrimidin-1-yl)phenyl)acetic acid] | > 10000 nM |
| Cn1ncc2c(=O)n(CC3(O)CCN(C(=O)c4ccc(Nc5ccccc5)cc4)CC3)cnc21 [Compound I-13] | 1000 to 10000 nM |
| O=C(c1ccccc1)N1CCC(O)(Cn2cnc3c(cnn3-c3ccccc3O)c2=O)CC1 [Compound I-18, 5-((1-Benzoyl-4-hydroxypiperidin-4-yl)methyl)-1-(2-hydroxyphenyl)-1,5-dihydro-4H-pyrazolo[3,4-d]pyrimidin-4-one] | > 10000 nM |
| O=C(c1ccccc1)N1CCC(O)(Cn2cnc3c(cnn3-c3cccc(O)c3)c2=O)CC1 [Compound I-19] | 1000 to 10000 nM |
| NCc1cccc(C(=O)N2CCC(O)(Cn3cnc4c(cnn4-c4ccccc4)c3=O)CC2)c1 [Compound I-20] | 1000 to 10000 nM |
| O=C(c1ccc(NC2CC2)cc1)N1CCC(O)(Cn2cnc3c(cnn3-c3ccccc3)c2=O)CC1 [Compound I-23, 5-((1-(4-(Cyclopropylamino)benzoyl)-4-hydroxypiperidin-4-yl)methyl)-1-phenyl-1,5-dihydro-4H-pyrazolo[3,4-d]pyrimidin-4-one] | 200 to 1000 nM |
| CC(C)(C)c1ccc(-n2ncc3c(=O)n(CC4(O)CCN(C(=O)C5CC5)CC4)cnc32)cc1 [Compound I-25] | 200 to 1000 nM |
| Cc1cc(C)c(-n2ncc3c(=O)n(CC4(O)CCN(C(=O)C5CC5)CC4)cnc32)c(C)c1 [Compound I-26] | > 10000 nM |
| CC(C)c1ccc(-n2ncc3c(=O)n(CC4(O)CCN(C(=O)C5CC5)CC4)cnc32)cc1 [Compound I-27] | 1000 to 10000 nM |
| O=C(C1CC1)N1CCC(O)(Cn2cnc3c(cnn3-c3ccc(C(F)(F)F)cc3)c2=O)CC1 [Compound I-28] | 1000 to 10000 nM |
| O=C(C1CC1)N1CCC(O)(Cn2cnc3c(cnn3C3CCCCC3)c2=O)CC1 [Compound I-29] | > 10000 nM |
| O=C(C1CC1)N1CCC(O)(Cn2cnc3c(cnn3-c3cccnc3)c2=O)CC1 [Compound I-30] | 1000 to 10000 nM |
| CS(=O)(=O)c1ccc(-n2ncc3c(=O)n(CC4(O)CCN(C(=O)C5CC5)CC4)cnc32)cc1 [Compound I-31] | 1000 to 10000 nM |
| O=C(C1CC1)N1CCC(O)(Cn2cnc3c(cnn3-c3ccc(Cl)c(Cl)c3)c2=O)CC1 [Compound I-33] | 1000 to 10000 nM |
| O=C(C1CC1)N1CCC(O)(Cn2cnc3c(cnn3-c3cccc(C(F)(F)F)c3)c2=O)CC1 [Compound I-34] | > 10000 nM |
| O=C(C1CC1)N1CCC(O)(Cn2cnc3c(cnn3-c3ccc(Cl)cc3)c2=O)CC1 [Compound I-35] | 1000 to 10000 nM |
| O=C(C1CC1)N1CCC(O)(Cn2cnc3c(cnn3-c3ccc(F)cc3)c2=O)CC1 [Compound I-38] | 1000 to 10000 nM |
| C[C@@H](n1cnc2c(cnn2-c2ccc(F)cc2)c1=O)C1(O)CCN(C(=O)c2ccc(F)cc2)CC1 [Compound I-44] | 1000 to 10000 nM |
| C=CS(=O)(=O)Nc1ccccc1-c1ccc(C(=O)N2CCC(O)(Cn3cnc4c(cnn4C)c3=O)CC2)cc1 [Compound I-45, N-(4′-(4-Hydroxy-4-((1-methyl-4-oxo-1,4-dihydro-5H-pyrazolo[3,4-d]pyrimidin-5-yl)methyl)piperidine-1-carbonyl)-[1,1′-biphenyl]-2-yl)ethenesulfonamide] | 200 to 1000 nM |
| O=C(c1ccccc1)N1CCC(O)(Cn2cnc3c(ccn3-c3ccc(F)cc3)c2=O)CC1 [Compound I-48] | 1000 to 10000 nM |
| NCc1cccc(-n2ccc3c(=O)n(CC4(O)CCN(C(=O)c5ccc(F)cc5)CC4)cnc32)c1 [Compound I-51, 7-(3-(Aminomethyl)phenyl)-3-((1-(4-fluorobenzoyl)-4-hydroxypiperidin-4-yl)methyl)-3,7-dihydro-4H-pyrrolo[2,3-d]pyrimidin-4-one] | 1000 to 10000 nM |

— patent publication US9902728B2, “Pyrrolo and pyrazolopyrimidines as ubiquitin-specific protease 7 inhibitors” (Forma Therapeutics, Inc., priority 2014, dated 2018)
